Experiments:
[1] = system: monkey hepatocytes; assay: In vitro hepatic uptake in monkey hepatocytes; type: in vitro ADME; details: data not shown
Experimental: (§1) To further investigate the liver partitioning properties of the compound of Example 1, the compound was co-administered with rifampicin (RIF, pan-OATP inhibitor) in cynomolgus monkeys in vivo and hepatic uptake experiments were performed in monkey hepatocytes in vitro. […] Therefore the coadministration experiments as described below in more detail were conducted to administer Example 1 compound orally (5 mg/kg) in the absence and presence of IV administration of RIF (30 mg/kg).

[2] = Liver partitioning / plasma PK study with and without rifampicin (pan-OATP inhibitor); type: in vivo, cynomolgus monkeys
Experimental: as §1
(§2) To assess the OATP (organic anion transporting polypeptides)-mediated liver specific delivery of the Example 1 compound, plasma pharmacokinetics (PK) was evaluated in cynomolgus monkeys. The in-life phase of the cyno PK studies was conducted at Covance Laboratories (Madison, Wis.). Animals were housed and handled in accordance with the Guide for the Care and Use of Laboratory Animals, Institute of Laboratory Animal Resources. The protocols were reviewed and approved by the Institutional Animal Care and Use Committees (IACUC). Male Cynomolgus monkeys weighing approximately 3 kg were used for the in-life portion of the PK studies. The animals were fasted overnight prior to dosing and up to 4 hours after dosing. The animals were administered with the test compound (Example 1) alone or coadministered with 30 mg/kg rifampicin prior to test compound administration at 5 mg/kg via oral gavage (3 monkeys per group). The aqueous formulation contains dimethyl sulfoxide, kolliphor, labrasol and propylene glycol. Approximately 0.5 mL blood samples were collected from each animal and analyzed for test compound (Example 1) concentrations. For LC-MS/MS analysis, plasma samples were prepared through protein precipitation extraction and analyzed on a Sciex API 5500 LC-MS/MS instrument (Applied Biosystems, Foster City, Calif.). Analyte was eluted on a 1.7 μm 50×2.1 mm Acquity UPLC BEH C18 column (Waters, Milford, Mass.) using mobile phases containing 0.1% formic acid and a linear gradient from 60% to 95% acetonitrile at a flow rate of 800 μL/min. Noncompartmental pharmacokinetic parameters were calculated using Phoenix 32 (Pharsight Corporation, Mountain View, Calif.). […]

[3] = system: OATP; assay: as above; type: in vivo, cynomolgus monkeys; details: male, cynomolgus monkey, plasma, with rifampicin 30 mg/kg IV (pan-OATP inhibitor), cynomolgus monkeys, 5 mg/kg oral, Pretreatment with Rifampicin 30 mg/kg
Experimental: as §1, §2

[4] = decrease (↓) with rifampicin pretreatment vs no pretreatment
[5] = increase (↑) with rifampicin pretreatment vs no pretreatment
[6] = male, cynomolgus monkey, plasma, cynomolgus monkeys, 5 mg/kg oral, No-Pre-treatment

- hepatic uptake [1]: strong hepatic uptake
- plasma exposures with RIF treatment relative to monkeys not treated with RIF ([2]; 5 mg/kg oral, RIF 30 mg/kg IV): significantly increased
- CL/F Fold-Change [2, 4]: ↓ 299
- Vz/F Fold-Change [2, 4]: ↓ 165
- AUC Fold-Change [2, 5]: ↑ 165
- Cmax Fold-Change [2, 5]: ↑ 86
- AUC [2, 6]: 0.294 µM·h
- CL/F [2, 6]: 748 mL/min/kg
- Cmax [2, 6]: 0.162 µM
- Vd/F ([2]; male, cynomolgus monkey, plasma, cynomolgus monkeys, 5 mg/kg oral, No-Pre-treatment, read-out: Vz/F): 72.7 L/kg
- AUC [3]: 48.5 µM·h
- CL/F [3]: 2.5 mL/min/kg
- Cmax [3]: 14 µM
- Vd/F ([3]; read-out: Vz/F): 0.44 L/kg
Structure (SMILES): COc1ccccc1[C@H](Cn1c(=O)n(C(C)(C)C(=O)NS(=O)(=O)C2(C)CC2)c(=O)c2c(C)c(-c3ncco3)sc21)O[C@@H]1C[C@H]2CC[C@@H](C1)O2 [Example 1, 2-(1-((R)-2-(((1R,3s,5S)-8-oxabicyclo[3.2.1]octan-3-yl)oxy)-2-(2-methoxyphenyl)ethyl)-5-methyl-6-(oxazol-2-yl)-2,4-dioxo-1,4-dihydrothieno[2,3-d]pyrimidin-3(2H)-yl)-2-methyl-N-((1-methylcyclopropyl)sulfonyl)propanamide]
